Where two headings read alike, the source gives them in different places.

Among the data in US8470839B2, “N1-acyl-5-fluoropyrimidinone derivatives” (Dow Agrosciences, LLC., priority 2009, dated 2013) are pest or weed control and melting point values, retold here.

Data set [1] deals with Mycosphaerella graminicola; Anamorph: Septoria tritici; Bayer Code SEPTTR. Nature of the data set: Evaluation of fungicidal activity: leaf blotch of wheat, greenhouse wheat plants inoculated with Septoria tritici. The data set is classed as in vivo. To be noted: Zymoseptoria tritici. As for the experimental part: Evaluation of Fungicidal Activity: Leaf Blotch of Wheat (Mycosphaerella graminicola; Anamorph: Septoria tritici; Bayer Code […]) Wheat plants (variety Yuma) were grown from seed in a greenhouse in 50% mineral soil/50% soil-less Metro mix until the first leaf was fully emerged, with 7-10 seedlings per pot. These plants were inoculated with an aqueous spore suspension of Septoria tritici either prior to or after fungicide treatments. After inoculation the plants were kept in 100% relative humidity (one day in a dark dew chamber followed by two to three days in a lighted dew chamber) to permit spores to germinate and infect the leaf. The plants were then transferred to a greenhouse for disease to develop. The following table presents the activity of typical compounds of the present disclosure when evaluated in these experiments. The effectiveness of the test compounds in controlling disease was determined by assessing the severity of disease on treated plants, then converting the severity to percent control based on the level of disease on untreated, inoculated plants. In each case of Table II the rating scale is as follows: […]

Where [2] appears, read: 24 h, One-Day Protectant (1DP), 100 ppm, wheat leaf blotch, percent control vs untreated inoculated plants, read-out: SEPTTR 100 PPM 1DP (% Disease Control rating).
[3] abbreviates: 72 h, Three-Day Curative (3DC), 100 ppm, wheat leaf blotch, percent control vs untreated inoculated plants, read-out: SEPTTR 100 PPM 3DC (% Disease Control rating).

For the molecule `CC(=O)n1cc(F)c(/N=C/N(C)C)nc1=O` [Compound 1, N′-(1-acetyl-5-fluoro-2-oxo-1,2-dihydropyrimidin-4-yl)-N,N-dimethylformamidine], the melting point is 125 to 130 °C (dec.). In addition, the pest or weed control at 100 ppm in data set [1] (setting [2]) lay in the range of 76 to 100%. For the same molecule, in data set [1] (setting [3]), the pest or weed control at 100 ppm was 76 to 100%.

The molecule `Cc1cccc(C)c1C(=O)n1cc(F)c(/N=C/N(C)C)nc1=O` [Compound 2, N′-[1-(2,6-dimethylbenzoyl)-5-fluoro-2-oxo-1,2-dihydro-pyrimidin-4-yl]-N,N-dimethylformamidine] gave a melting point of 120 to 150 °C. Further, the pest or weed control at 100 ppm in data set [1] (setting [2]) was 76 to 100%. Besides, the pest or weed control at 100 ppm in data set [1] (setting [3]) fell in the range of 76 to 100%.

In turn, `CN(C)/C=N/c1nc(=O)n(C(=O)c2c(Cl)cccc2Cl)cc1F` [Compound 3, N′-[1-(2,6-dichlorobenzoyl)-5-fluoro-2-oxo-1,2-dihydro-pyrimidin-4-yl]-N,N-dimethylformamidine] showed a melting point of 185 to 187 °C. Besides, in data set [1] (24 h, read-out: SEPTTR 100 PPM 1DP (% Disease Control rating)), the pest or weed control at 100 ppm fell in the range of 51 to 75%. For the same molecule, the pest or weed control at 100 ppm in data set [1] (72 h, read-out: SEPTTR 100 PPM 3DC (% Disease Control rating)) lay within 76 to 100%.

Consider `CN(C)/C=N/c1nc(=O)n(C(=O)c2ccc(Cl)cc2Cl)cc1F` [Compound 4], for which the pest or weed control at 100 ppm in data set [1] (setting [2]) and in data set [1] (setting [3]) was 76 to 100% throughout.

For the molecule `Cc1ccc(C(=O)n2cc(F)c(/N=C/N(C)C)nc2=O)c(C)c1` [Compound 5], the pest or weed control at 100 ppm in data set [1] (setting [2]) and in data set [1] (setting [3]) was 76 to 100% in each case.

For `CC(C)=CC(=O)n1cc(F)c(/N=C/N(C)C)nc1=O` [Compound 6], the melting point lay in the range of 128 to 130 °C. Moreover, in data set [1] (setting [2]), the pest or weed control at 100 ppm was in the range of 76 to 100%. Also, the pest or weed control at 100 ppm in data set [1] (setting [3]) lay in the range of 76 to 100%.

Molecule `CN(C)/C=N/c1nc(=O)n(C(=O)c2ccccc2)cc1F` [Compound 7] registered a melting point of 137.3 to 139 °C. Moreover, in data set [1] (setting [2]), the pest or weed control at 100 ppm lay within 76 to 100%. The pest or weed control at 100 ppm in data set [1] (setting [3]) lay within 76 to 100%.

Molecule `COc1ccc(C(=O)n2cc(F)c(/N=C/N(C)C)nc2=O)cc1` [Compound 8] returned a melting point of 126.2 to 128.3 °C. In addition, the pest or weed control at 100 ppm in data set [1] (setting [2]) was in the range of 76 to 100%. In addition, the pest or weed control at 100 ppm in data set [1] (setting [3]) lay within 76 to 100%.

Molecule `Cc1ccc(C(=O)n2cc(F)c(/N=C/N(C)C)nc2=O)cc1` [Compound 9] had a melting point of 128.8 to 130.5 °C. Moreover, the pest or weed control at 100 ppm in data set [1] (setting [2]) lay within 76 to 100%. Besides, the pest or weed control at 100 ppm in data set [1] (setting [3]) was 76 to 100%.

In the case of `CN(C)/C=N/c1nc(=O)n(C(=O)c2cccs2)cc1F` [Compound 10], the melting point fell in the range of 154.8 to 156.5 °C. Moreover, in data set [1] (setting [2]), the pest or weed control at 100 ppm was 76 to 100%. In addition, in data set [1] (setting [3]), the pest or weed control at 100 ppm fell in the range of 76 to 100%.

For the molecule `CN(C)/C=N/c1nc(=O)n(C(=O)c2ccc(F)c(F)c2)cc1F` [Compound 11], the melting point fell in the range of 130 to 132 °C. The pest or weed control at 100 ppm in data set [1] (setting [2]) was 76 to 100%. Besides, in data set [1] (setting [3]), the pest or weed control at 100 ppm lay within 76 to 100%.

Take `CN(C)/C=N/c1nc(=O)n(C(=O)c2cccc(Cl)c2)cc1F` [Compound 12]: the melting point lay in the range of 95.3 to 97.7 °C.

Regarding `Nc1nc(=O)n(C(=O)c2cc(F)cc(F)c2)cc1F` [Compound 13, 4-amino-1-(3,5-difluorobenzoyl)-5-fluoro-1H-pyrimidin-2-one], the pest or weed control at 100 ppm in data set [1] (setting [2]) and in data set [1] (setting [3]) was 76 to 100% in each case.

The molecule `Nc1nc(=O)n(C(=O)c2ccccc2)cc1F` [Compound 14] displayed a melting point of 213.2 to 215.3 °C. Besides, the pest or weed control at 100 ppm in data set [1] (setting [2]) fell in the range of 76 to 100%. The pest or weed control at 100 ppm in data set [1] (setting [3]) fell in the range of 76 to 100%.

With `COc1ccc(C(=O)n2cc(F)c(N)nc2=O)cc1` [Compound 15], the melting point was in the range of 257.9 to 259.6 °C. In data set [1] (setting [2]), the pest or weed control at 100 ppm lay within 76 to 100%. Further, the pest or weed control at 100 ppm in data set [1] (setting [3]) was 76 to 100%.

Regarding `Nc1nc(=O)n(C(=O)c2ccccc2F)cc1F` [Compound 16], the melting point lay in the range of 228.3 to 229.7 °C. The pest or weed control at 100 ppm in data set [1] (setting [2]) is 76 to 100%. Also, in data set [1] (setting [3]), the pest or weed control at 100 ppm was 76 to 100%.

In turn, `Cc1ccc(C(=O)n2cc(F)c(N)nc2=O)cc1` [Compound 17] came in with a melting point of 257 to 259.5 °C. The pest or weed control at 100 ppm in data set [1] (setting [2]) was 76 to 100%. Further, in data set [1] (setting [3]), the pest or weed control at 100 ppm is 76 to 100%.

`COc1ccc(C(=O)n2cc(F)c(N)nc2=O)cc1OC` [Compound 18]: the melting point was in the range of 170 to 172 °C. In data set [1] (setting [2]), the pest or weed control at 100 ppm lay within 76 to 100%. Also, the pest or weed control at 100 ppm in data set [1] (setting [3]) was 76 to 100%.

`Nc1nc(=O)n(C(=O)c2ccsc2)cc1F` [Compound 19] returned a melting point of 223.1 to 225.2 °C. In addition, in data set [1] (setting [2]), the pest or weed control at 100 ppm is 76 to 100%. Further, the pest or weed control at 100 ppm in data set [1] (setting [3]) is 76 to 100%.

As to `Nc1nc(=O)n(C(=O)c2ccc(F)c(F)c2)cc1F` [Compound 20], the melting point was in the range of 150 to 152 °C. Besides, the pest or weed control at 100 ppm in data set [1] (setting [2]) lay within 76 to 100%. In addition, the pest or weed control at 100 ppm in data set [1] (setting [3]) was 76 to 100%.

The molecule `CC(=O)Nc1nc(=O)n(C(=O)c2ccc(C)cc2)cc1F` [Compound 21, N-(5-fluoro-1-(4-methylbenzoyl)-2-oxo-1,2-dihydropyrimidin-4-yl)acetamide] returned a melting point of 146.9 to 148.2 °C.

With `CC(=O)Nc1nc(=O)n(C(=O)c2ccccc2)cc1F` [Compound 22], the melting point lay in the range of 122.8 to 123.6 °C.

With `CC(=O)Nc1nc(=O)n(C(=O)c2cccc(Cl)c2)cc1F` [Compound 23], the melting point is 129.5 to 131 °C.

The term melting point denotes the temperature, or range, at which the solid turns liquid.
